Assay results published in patent US20260345584A1, “METHODS AND PHARMACEUTICAL COMPOSITIONS FOR TREATING CHEMOTHERAPY-INDUCED PERIPHERAL NEUROPATHY WITH EG5 INHIBITORS” (UNIVERSITY OF MIAMI, priority 2023, published 2026).

Columns and labels:
Assay type in all cases: in vivo, zebrafish
[1] = tested on: HyPer oxidation in keratinocytes; assay: Compartmentalized HyPer oxidation (nucleus, plasma membrane) in keratinocytes; conditions: paclitaxel, alone or with EMD534085; for nuclear HyPer oxidation: nucleus
Experimental: HyPer fluorescence was measured in the oxidized (505 nm) and unoxidized (420 nm) channels by using the region of interest (ROI) function in ZEN Black (Zeiss) whereby ROIs were selected inside highly magnified mitochondria (HyPer-mito), cytoplasm (HyPer-cyto) or the plasma membrane (HyPer-CAAX). The data was exported, and ratios determined in Excel. H2O2 measurements in zebrafish transiently injected with tp63:Hyper were manually performed by placing spot objects in Imaris 9.5.1 onto individual cells such that the spots extended to the lateral edges. Fluorescence intensities were measured inside the spots and 505 nm/420 nm ratios were subsequently calculated.
These findings supported a role for Eg5 in nuclear X-ROS production as a result of microtubule fasciculation and increased mechanical tension.

[2] = tested on: caudal fin keratinocytes (mitosis); assay: Keratinocyte mitosis, 12 hr time-lapse imaging of h2a:h2a-GFP fish
Experimental: (§1) Fish were anesthetized in 2-phenoxyethanol (1:1000) in Ringer's solution prior to imaging and mounted in 1.2% agarose. EB3-GFP and Tau-Bfp2 were imaged with a scan speed kept at the maximum level in single slice mode with […] for a total of 60s to capture microtubule dynamics. h2a:H2A-GFP time-lapse recordings were produced (Zeiss LSM880 AiryScan confocal microscope) with 1 μm sections recorded every 10 min for 12 hr using 800×800 pixels. All other live fish were imaged using 1024×1024 pixels.
(§2) Cell divisions and cell death were manually counted in 12 hr movie recordings. The caudal fin was divided into 6 quadrants and individual cells in each quadrant were manually followed over 12 hr at least 3 times sequentially to capture cell divisions and dying cell behaviors.
To examine the effects of EMD534085 on mitosis, cell divisions in keratinocytes expressing nuclear h2a-h2a:GFP were quantified using 12 hr time-lapse imaging. […] The few divisions present were mostly restricted to the distal notochord region, with an average of 0.96±0.20/12 hr divisions at 3dpf and 1.16±0.44/12 hr at 6dpf in this region (shown in FIG. 6A).

[3] = tested on: caudal fin keratinocytes (cell death); assay: Keratinocyte cell death, 12 hr time-lapse imaging
Experimental: as §1, §2

[4] = tested on: microtubules in keratinocytes; assay: EB3-GFP microtubule growth dynamics in keratinocytes
Experimental: as §1
EB3-GFP tracking was done in Fiji using the MTrackJ plugin to trace microtubules over time and create Kymographs, measure the velocity, track length, and comet duration. Tracking was also performed using the Spots and Surface tools in Imaris. Settings were initially automatically detected to fit the fluorescence and subsequently modified manually for improved fit. Settings were maintained between treatment groups.
To validate this, microtubule growth dynamics were characterized in basal keratinocytes expressing the microtubule plus-end binding protein, EB3-GFP (courtesy of R. Koester) (Distel et al., 2010, The Journal of cell biology 191: 875-890). […] However, a small proportion of keratinocytes also harbored uniformly labelled EB3-positive microtubules, consistent with previous observations in murine axons (Kleele et al., 2015, Proceedings of the National Academy of Sciences of the United States of America 112: 7501-7506). […] This behavior therefore contrasts the curved conformation of stable dfMTs.

axonal microtubules = assay: Axonal detyrosination (GluTub) along axon segments in distal caudal fin; conditions: EMD534085 alone, wildtype, 96 hr
Experimental: Larval fish were transferred into […] glass vials and fixed in 4% paraformaldehyde (PFA)/1× Phosphate-buffered saline (PBS) for 1.5 hr at room temperature, with gentle rocking. Following a 5-minute incubation in 1×PBS+0.1% Tween-20 (PBST), zebrafish were permeabilized in 1×PBS+0.1% Triton X-100 for 10-30 min. Larval fish were transferred into 2 ml reaction tubes and incubated in blocking buffer (1×PBST+5% BSA) for 30 min at room temperature, with rocking. Larval fish were further incubated overnight in antibody solution (Millipore Sigma, Cat. No. AB3201, 1:300 rabbit anti-GluTub; Sigma, Cat No. T6793, 1:500 mouse anti-acetylated tubulin) in blocking buffer at 4 °C, on a rotator. The next morning, larval fish were transferred into 6-well plates and washed 4×15 min in 1×PBST at room temperature, with rocking. […]
Axon branch number quantifications were performed by drawing a 50 μm line across the dorsal, medial, and ventral caudal fin edge region at a distance of 100 μm parallel to the fin edge (which was determined to be the most reliable region to quantify distal branch numbers). Axons traversing this line were counted and averaged per treatment group. Axonal fluorescence measurements were taken using the Imaris Spots function by manually placing spots along the axon and using the fluorescence intensity profile measurements MatLab tool.

[5] = 22 μM paclitaxel, alone or with EMD534085, 96 hr

SMILES | nuclear HyPer oxidation [1] | plasma membrane HyPer oxidation [1] | mitotic divisions per animal ([2]; EMD534085 alone, 96 hr) | cell death ([3]; EMD534085 alone, 96 hr) [dying cells/caudal fin] | paclitaxel-dependent microtubule growth dynamics ([4]; EMD534085 with 22 μM paclitaxel) | normalized GluTub intensity ratios (axon) (axonal microtubules) | mitotic divisions per animal ([2]; 100 nM paclitaxel, 96 hr) | mitotic divisions per animal [2, 5] | cell death ([3]; 100 nM paclitaxel, alone or with EMD534085, 96 hr) [dying cells/caudal fin] | cell death [3, 5] [dying cells/caudal fin] | keratinocytes with uniform EB3 labelling ([4]; 22 μM paclitaxel, 96 hr) [%] | comet duration ([4]; paclitaxel, 3 hr) | growth velocity and track length of microtubules ([4]; paclitaxel, 3 hr) | keratinocytes with uniform EB3 labelling ([4]; paclitaxel, 3 hr) [%] | keratinocytes with uniform EB3 labelling ([4]; paclitaxel, 48 hr) [%] | linearity of microtubules ([4]; paclitaxel, 48 hr and 96 hr)
CN(C)CCNC(=O)NC[C@H]1CC[C@@H]2[C@H](O1)c1cc(C(F)(F)F)ccc1N[C@H]2c1ccccc1 [EMD534085] | Nuclear HyPer oxidation was reduced upon co-administration of EMD534085 | without effects on plasma membrane oxidation | 1.27±0.46 /12 hr | 0.81±0.26 | did not alter the effects induced by paclitaxel alone | 2.13±0.13 | – | – | – | – | – | – | – | – | – | –
CC(=O)O[C@H]1C(=O)[C@@]2(C)[C@H]([C@H](OC(=O)c3ccccc3)[C@]3(O)C[C@H](OC(=O)[C@H](O)[C@@H](NC(=O)c4ccccc4)c4ccccc4)C(C)=C1C3(C)C)[C@]1(OC(C)=O)CO[C@@H]1C[C@@H]2O [paclitaxel] | increased oxidation within the nucleus | not at the plasma membrane | – | – | – | – | 0.72±0.423 | 1.4±0.67 | 0.18±0.18 | 0.6±0.3 | 20.13 | not affected | decreased the growth velocity and track length of microtubules | 19.29 | 10.09 | further enhanced the linearity
